Data from patent US6593087B2, “Methods for detecting and reversing resistance to macrocyclic lactone compounds” (priority 1997, dated 2003).

How the values were obtained:
[1] = test system: H. contortus susceptible strain (PF14); test: Efficacy of verapamil with or without ivermectin against susceptible H. contortus in jirds (Example 7); type: in vivo, Haemonchus contortus
Procedure: (§1) Jirds, which are fed on a standard commercial ration to which 0.02% hydrocortisone has been added 5 days prior to infection, are inoculated with 1000 exsheathed L3 H. contortus. On day 10 after inoculation, the jirds are treated with either water or various doses of moxidectin or ivermectin orally. Each treatment group contains 6 jirds. Probit analyses are used to estimate LD50 levels for each anthelmintic against each strain.
(§2) Verapamil is given concomitantly with ivermectin by the oral route.

[2] = test system: H. contortus moxidectin-resistant strain (MOF14); test: Efficacy of verapamil with or without ivermectin against moxidectin resistant H. contortus in jirds (Example 7); type: in vivo, Haemonchus contortus
Procedure: as §1, §2

[3] = test system: H. contortus moxidectin-resistant strain (MOF14); test: Effect of verapamil on efficacy of moxidectin and ivermectin against moxidectin-resistant H. contortus in jirds (Example 8); type: in vivo, Haemonchus contortus; set-up: key to SIGNIFICANCE AT P <0.05: A: Different letters indicate the mean worm counts are statistically different; B: Different letters indicate the mean worm counts are statistically different; C: Different letters indicate the mean worm counts are statistically different; conditions: for SIGNIFICANCE AT P <0.05: MOF14 in jirds, mean worm counts, IVM (±VRP) not compared with MOX (±VRP)
[4] = test system: H. contortus moxidectin-resistant strain (MOF14); test: Dose titration to establish LD50 against moxidectin resistant H. contortus in the jird; type: in vivo, Haemonchus contortus; conditions: jirds, oral, treated day 10 after inoculation, probit analysis
Procedure: as §1

[5] = test system: H. contortus susceptible strain (PF14); test: Dose titration to establish LD50 against susceptible H. contortus in the jird; type: in vivo, Haemonchus contortus; conditions: jirds, oral, treated day 10 after inoculation, probit analysis
Procedure: as §1

[6] = test system: H. contortus ivermectin resistant strain (ACR); conditions: ACR after twelve generations of ivermectin selection
[7] = test system: H. contortus ivermectin resistant strain (MFR); conditions: MFR selected over seventeen generations of ivermectin selection; cited from earlier work
[8] = test system: mice with deletion of mdr1a; conditions: mice with deletion of mdr1a versus normal mice; cited from earlier work
[9] = verapamil 20 mg/kg, resistant worms, jirds (Example 8)

Compound | significance of worm counts ([1]; susceptible strain PF14 in jirds, VRP 20 mg/kg, IVM 0.024 mg/kg, oral) | effect of verapamil alone on worm counts ([1]; susceptible strain, any of the dose rates used (20 to 80 mg/kg), jirds) | significance of worm counts ([2]; MOX-resistant strain MOF14 in jirds, VRP 20 mg/kg, IVM 0.046 mg/kg, oral) | effect of verapamil alone on worm counts ([2]; moxidectin resistant strain, any of the dose rates used (20 to 80 mg/kg), jirds) | effect of verapamil on the efficacy of ivermectin ([2]; verapamil 20 mg/kg, moxidectin resistant worms, jirds (Example 7)) | SIGNIFICANCE AT P <0.05 [3] | effect of verapamil on the efficacy of moxidectin [3, 9] | increase in efficacy when verapamil is coadministered with ivermectin [3, 9] | estimated LD50 [4] | estimated LD50 [5] | resistance at the ED95 compared with ACS [6] | resistance at the ED95 compared with MFS [7] | sensitivity to ivermectin relative to normal mice [8]
COc1ccc(CCN(C)CCCC(C#N)(c2ccc(OC)c(OC)c2)C(C)C)cc1OC (centres unmarked) [verapamil] | n.s. | no significant effect on worm counts | n.s. | no significant effect on worm counts | significantly enhances the efficacy of ivermectin | A | significantly increases the efficacy of moxidectin | not significant | – | – | – | – | –
CO/N=C1\C[C@]2(C[C@@H]3C[C@@H](C/C=C(\C)C[C@@H](C)/C=C/C=C4\CO[C@@H]5[C@H](O)C(C)=C[C@@H](C(=O)O3)[C@]45O)O2)O[C@H](/C(C)=C/C(C)C)[C@H]1C [moxidectin, 23-(O-methyloxime)-LL-F28249α] | – | – | – | – | – | B | – | – | 0.017 mg/kg | 0.010 mg/kg | – | – | –
22,23-dihydroavermectin B1 [ivermectin] | – | – | – | – | – | B | – | – | 0.046 mg/kg | 0.024 mg/kg | 6.3 × | 10 × | 50-100 times
